Values after ≈ are worked out from the molar mass of the structure shown.
Columns and labels:
Solubility in water = type: physicochemical
Method: A more soluble form of Compound Ia was prepared as follows. […] Powdered NaHCO3 was added in small portions, with stirring. A clear solution was obtained after adding 5.0 mg of NaHCO3 and the indicated pH then was 6.0. After filtration through a Millipore membrane filter to remove they insoluble impurities, the filtrate was lyophilized to give 245 mg of a water-soluble form of Compound Ia, mp 165° C. Estimated purity 80% (by HPLC). The sample was completely soluble in water to give a 25% solution.
To a stirred solution of diphenylmethyl 7-[(Z)-2-t-butoxycarbonylprop-2-oxyimino)-2-(2-tritylaminothiazol-4-yl)-acetamido]-3-iodomethyl-3-cephem-4-carboxylate [VIId'] (700 mg, 0.66 mmole) in 3 mL of DMSO, was added thiazolo[4,5-c]pyridine (115 mg, 0.84 mmole) in two portions and the mixture was stirred for 1.25 hours at room temperature. The reaction mixture was diluted with ether (150 mL) to separate an oily product, which was washed again with ether. The residue was dissolved in methylene chloride (100 mL) and the solution was filtered and evaporated to give 655 mg of the blocked product [XIIId']. The yellow product (630 mg) was suspended in anisole (1 mL) and, with ice cooling, was treated with a mixture of TFA (10 mL) and water (0.5 mL). The mixture was stirred for 20 minutes with ice cooling and then for 1 hour at room temperature. After evaporation of the mixture below 30° C., the residue was triturated with isopropyl ether (50 mL). The precipitate was collected by filtration, and dried under reduced pressure to obtain 485 mg of crude title compound as a yellow powder. The crude product (480 mg) was dissolved in a small volume of aqueous sodium bicarbonate and purified by HPLC (Column, Lichrosorb RP-18; mobile phase, water). The desired fractions were combined (ca. 90 mL) and acidified to pH 2 with dilute hydrochloric acid. The acidified solution was passed through an HP-20 column (50 mL) and washed with water (200 mL). […] Mp >180° C. (dec.).
The free acid of Compound Id (100 mg) was dissolved in a small volume of aqueous sodium bicarbonate and subjected to HPLC (Column, Lichrosorb RP-18; mobile phase, water). The eluate containing the desired product which was concentrated and lyophilized to give 30 mg of the sodium salt of Id as a pale yellow amorphous powder, which was more than 25% soluble in water. Mp 178°-196° C. (dec.).
A solution of diphenylmethyl 7-[(Z)-(2-t-butoxycarbonylprop-2-oxyimino)-2-(2-tritylaminothiazol-4-yl)acetamido]-3-iodomethyl-3-cephem-4-carboxylate [VIId'] (9.0 g, 8.5 mmoles) and thiazolo[4,5-c]pyridine (1.5 g, 11 mmoles) in dimethylsulfoxide (38 mL) was stirred at room temperature for 1 hour. The reaction mixture was poured into ether (500 mL) and, after decantation, the oily precipitate was dissolved in chloroform (300 mL). […]

S. pyogenes A20201 = assay: Median protective dose in infected mice; type: in vivo; details: Streptococcus pyogenes, im, immediately after intraperitoneal challenge, read-out: PD50
Method: The median protective dose (PD50) of some of the preferred compounds against various microorganisms was determined in mice by intramuscular administration of the test compound immediately after an intraperitoneal bacterial challenge.

[1] = tested on: H. influenzae (7) (ampicillin sensitive); assay: In vitro activity against fastidious bacteria, two-fold serial agar dilution; type: cell-based; details: Haemophilus influenzae, GC agar, 7 strains, read-out: Geometric Mean of MIC
Method: The in vitro activity of some of the preferred compounds against 30 strains of fastidious bacteria was determined by the two-fold serial agar dilution method in Gonococcus agar (GC agar), and the results are shown in Table 3.

| SMILES | solubility in water (Solubility in water; 250 mg in distilled water 1.0 mL, indicated pH 4.3) | solubility (Solubility in water; water-soluble form (NaHCO3 to pH 6.0, lyophilized)) [mg/mL] | ED50 (S. pyogenes A20201) [mg/kg] | solubility in water (Solubility in water; free acid) | solubility (Solubility in water; water, sodium salt) [mg/mL] | MIC [1] [µg/mL] |
| --- | --- | --- | --- | --- | --- | --- |
| CO/N=C(\C(=O)NC1C(=O)N2C(C(=O)[O-])=C(C[n+]3ccc4scnc4c3)CS[C@H]12)c1csc(N)n1 (stereo partly drawn) [Ia, 7-[(Z)-2-(2-Aminothiazol-4-yl)-2-methoxyiminoacetamido]-3-{(5-thiazolo[4,5-c]pyridinio)methyl}-3-cephem-4-carboxylate] | not completely soluble | ≥ 250 | – | – | – | – |
| CC(C)(O/N=C(\C(=O)NC1C(=O)N2C(C(=O)[O-])=C(C[n+]3ccc4scnc4c3)CS[C@H]12)c1csc(N)n1)C(=O)O (stereo partly drawn) [Id, 7-[(Z)-2-(2-Aminothiazol-4-yl)-2-(2-carboxyprop-2-oxyimino)-acetamido]-3-{(5-thiazolo[4,5-c]pyridinio)methyl}-3-cephem-4-carboxylate] | – | – | 0.23 | slightly soluble in water | > 250 | 0.1 (≈ 0.166 µM) |
